For series [1], the system named is B23 cells. Kind of series: cells. Type of series: cell-based, Human. The procedure: (§1) Human anti-apoptotic Bcl-2 over-expressing epithelial cells (B23 cells) (Nguyen et al. (1994) J. Biol. Chem. 269 (24): 16521-24) were plated in 24-well plates at a density of about 80,000 cells per well and infected with 12S-adenovirus, which expresses the E1A oncogene (Nguyen et al. (1998) J. Biol. Chem. 273 (50): 33099-102). Normal human breast epithelial cells, MCF-7 breast cancer cells and MBA-MB231 breast cancer cells were plated in 24-well plates at a density of between 70,000-80,000 cells per well. After incubation at 37° C. for the indicated times in a 5% CO2 incubator, cells were harvested and cell death was monitored using a trypan blue assay as described in Ausubel et al. (1988) Current Protocols in Molecular Biology, Section 11.5.1 (Greene Publishing Associates and Intersciences, New York)).
Normally, intracellular expression of an oncogene in cells results in apoptotic cell death. However, if anti-apoptotic Bcl-2 is over-expressed in these cells, they are protected from apoptosis. Therefore, an anti-cancer compound's activity can be monitored by measuring cell death in B23 cells in the presence of the E1A oncogene.

A short description of series [2]: Trypan blue cell death assay in normal human breast epithelial cells. Type of series: cell-based. The note with it: human. On the procedure:
as §1

Series [3] concerns Normal human breast epithelial cells. The description is as above. To be noted: 1 μM. Type of series: cell-based. The procedure:
as §1

Series [4] relates to MCF-7 breast cancer cells. Kind of series: Trypan blue cell death assay in MCF-7 breast cancer cells. Type of series: cell-based. To be noted: Homo sapiens, MCF7, 72 h, read-out: Cytotoxicity (% Dead Cells). On the procedure:
as §1

Series [5] relates to MBA-MB231 breast cancer cells. Description: cells. To be noted: 72 h, read-out: Cytotoxicity (% Dead Cells). Format: cell-based. The procedure:
as §1

The subject of series [6] is Human oral epithelial carcinoma cells (KB cells). Kind of series: Apoptosis reinstatement in Bcl-2 over-expressing KB cells (trypan blue). Format: cell-based. On the procedure: Human oral epithelial carcinoma cells (KB cells) with and without stably expressed anti-apoptotic Bcl-2 were infected with 12S-adenovirus expressing the E1A oncogene, as described above in Example 6.1. Cell death was monitored 70 hours after infection using the trypan blue assay described above.

The next series concerns Baby rat kidney cells. Kind of series: Transformation of baby rat kidney cells transfected with E1A oncogene and Bcl-2 (colony count). Type of series: cell-based. On the procedure:
Baby rat kidney cells were transfected with RcRSV (Hartl et al. (1992) Cell Growth Differ. 3 (12): 909-18) expressing both E1A oncogene and anti-apoptotic Bcl-2 as described in (Lin et al. (1995) Mol. Cell. Biol. 15 (8): 4536-44). Transfected cells were then cultured (Lin et al. (1995) Mol. Cell. Biol. 15 (8): 4536-44) in the presence of varying concentrations of Butyl-meta-cycloheptylprodiginine for three weeks and the number of transformed cell colonies was counted.

In another series the target is Bcl-2 (Homo sapiens, UniProt P10415). Kind of series: Anti-apoptotic:Pro-apoptotic binding assay, Bcl-2.
The next series addresses T1, Bcl-w (Homo sapiens, UniProt Q92843).
T1 sequence (Q92843 1-193): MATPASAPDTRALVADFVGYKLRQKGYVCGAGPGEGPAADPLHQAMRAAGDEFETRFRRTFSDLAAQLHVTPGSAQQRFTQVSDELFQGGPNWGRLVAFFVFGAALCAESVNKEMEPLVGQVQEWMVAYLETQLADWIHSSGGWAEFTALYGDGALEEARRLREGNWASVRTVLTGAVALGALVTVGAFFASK
Kind of series: Anti-apoptotic:Pro-apoptotic binding assay, Bcl-w.

The subject of the next series is E1A cells. Description: E1A-Bcl2 killing assay. Type of series: cell-based. On the procedure:
as §1
IC50 values determined for these illustrative compounds in an E1A killing assay, using the materials and methods described above. These compounds have been described in Gerber et al. (1975), Critical Reviews in Microbiology, pp. 469-85.

Series [7] concerns normal baby rat kidney cells. Kind of series: Susceptibility of normal baby rat kidney cells. The note with it: similar conditions; data not shown. Format: cell-based. From the text:
In the absence of anti-apoptotic Bcl-2, all baby rat kidney cells died within a few days (data not shown).

In series [8] the test system is B23 cells. Format: cell-based, Human. To be noted: B23 cells without E1A; data not shown.
The mark [9] stands for this setting: Homo sapiens, 72 h, read-out: Cytotoxicity (% Dead Cells).

Sequence of Bcl-2 (P10415 whole entry): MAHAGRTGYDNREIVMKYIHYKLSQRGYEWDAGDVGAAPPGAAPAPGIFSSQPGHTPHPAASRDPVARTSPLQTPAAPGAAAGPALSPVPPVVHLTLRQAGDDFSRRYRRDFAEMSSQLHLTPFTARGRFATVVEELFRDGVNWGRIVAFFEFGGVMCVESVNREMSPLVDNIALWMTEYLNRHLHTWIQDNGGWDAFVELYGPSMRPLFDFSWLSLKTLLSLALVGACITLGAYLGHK

Take `CCCCC1CCCCCCc2cc1c(/C=C1\N=C(c3ccc[nH]3)C=C1OC)[nH]2` (stereo not shown) [Butyl-meta-cycloheptylprodiginine, butyl-meta-cycloheptylprodiginine]: in the series with B23 cells [1] (B23 cells with E1A, concentrations as low as), the “Concentration able to inhibit Bcl-2 in B23 cells and re-establish the killing effect of the E1A oncogene” value came to 0.25 µM. Further, the cytotoxicity at 1 µM with B23 cells [1] (setting [9]) was determined as 85%; in series [4] it was 100%; in [5], 100%. Besides, the cytotoxicity at 2 µM in the series with B23 cells [1] (setting [9]) is 95%; in series [4], 100%; in series [5], 100%. In addition, the cytotoxicity at 0.25 µM stood at 75% with B23 cells [1] (Homo sapiens, B23 cells, 0.25 μM, 72 h, read-out: Cytotoxicity (% Dead Cells)); 70% in [4]; 64% in series [5]. This compound also had a cytotoxicity at 72 h, 0.25 µM in [2] of 5%. The cytotoxicity at 72 h, 1 µM in series [2] was 5%. In series [2], this compound displayed a cytotoxicity at 72 h, 2 µM of 15%. Besides, the “Effect on normal human breast epithelial cells” value in series [3] is listed as “not affected”. Also, in series [6] (uninfected cells, same concentrations), the “Apoptosis in uninfected KB cells” value is recorded as “no effect on apoptosis”. The “Apoptosis in E1A-infected Bcl-2 over-expressing KB cells” value in [6] (various concentrations, 70 hours after infection) was “reinstate apoptosis”. Also, the “Apoptosis of transformed colonies” value in the series on Baby rat kidney cells (baby rat kidney cells transformed with Bcl-2 and E1A) is on record as “promoted apoptosis of the transformed colonies”. The “Number of transformed cell colonies (ability of Bcl-2 to transform cells in the presence of E1A)” value in the series on Baby rat kidney cells (increasing concentrations, three weeks) is “significantly lowered the ability of anti-apoptotic Bcl-2 to transform cells”. For the same compound, the IC50 was found to be 125 µM on Bcl-2, 100 µM at Bcl-w and 0.05 µM in the series on E1A cells (read-out: IC50 (μM) E1A-Bcl2 killing assay). In addition, the “Susceptibility of normal baby rat kidney cells” value in [7] is given as “not susceptible”. Further, the “Effect on B23 cell death in the absence of E1A” value with B23 cells [8] is “no significant effect”.
Consider `CCC1CCCCCCCCc2ccc([nH]2)/C=C2\N=C(C=C2OC)c2ccc1[nH]2` (stereo not shown) [Ethylcyclononylprodiginine, ethylcyclononyl-prodiginine], for which, in the series with B23 cells [1] (setting [9]), the cytotoxicity at 1 µM came to 15% and the cytotoxicity at 5 µM came out at 20%. Also, the inhibition at 510 µM at Bcl-2 (at 510 μM, read-out: % inhibition at μM concentration, Anti-apoptotic:Pro-apoptotic binding assay Bcl-2) was found to be 45%. In addition, in the series with E1A cells (read-out: % inhibition at μM concentration, E1A-Bcl2 killing assay), the inhibition at 5 µM worked out at 20%.
Regarding Undecylprodiginine, the “Cytotoxicity (% Dead Cells)” value with B23 cells [1] (B23 cells, 1.0 μM, 72 h) is 18%; in the series on B23 cells [1] (B23 cells, 5.0 μM, 72 h), 25%. The “% inhibition at μM concentration, Anti-apoptotic:Pro-apoptotic binding assay Bcl-2” value on Bcl-2 (at 500 μM) is on record as 40%; 500 μM. For the same compound, the “% inhibition at μM concentration, E1A-Bcl2 killing assay” value with E1A cells (at 5 μM) is on record as 25%; 5 μM.

These data come from patent US20030119894A1, “Methods for treatment of cancer or neoplastic disease and for inhibiting growth of cancer cells and neoplastic cells” (Gemin X Biotechnologies Inc., priority 2001, published 2003).
